The results in this text go back to paper PMC10037270 (Journal of medicinal chemistry, 2023).

Series [1] concerns the target HA-mouse μOR (Mus musculus, UniProt P42866). The series can be described thus: GloSensor cAMP inhibition assay at μOR in transfected HEK cells. Type of series: cell-based. As to conditions: HEK293, read-out: cAMP inhibition at μOR Emax % ± SEM.
Series [2] has as its target T1, μOR (Homo sapiens, UniProt P35372). Type of series: binding. As to conditions: screen at 1 μM, [3H]DAMGO.
In series [3] the target is κOR (Homo sapiens, UniProt P41145). Type of series: binding.
Sequence of κOR (P41145 whole entry): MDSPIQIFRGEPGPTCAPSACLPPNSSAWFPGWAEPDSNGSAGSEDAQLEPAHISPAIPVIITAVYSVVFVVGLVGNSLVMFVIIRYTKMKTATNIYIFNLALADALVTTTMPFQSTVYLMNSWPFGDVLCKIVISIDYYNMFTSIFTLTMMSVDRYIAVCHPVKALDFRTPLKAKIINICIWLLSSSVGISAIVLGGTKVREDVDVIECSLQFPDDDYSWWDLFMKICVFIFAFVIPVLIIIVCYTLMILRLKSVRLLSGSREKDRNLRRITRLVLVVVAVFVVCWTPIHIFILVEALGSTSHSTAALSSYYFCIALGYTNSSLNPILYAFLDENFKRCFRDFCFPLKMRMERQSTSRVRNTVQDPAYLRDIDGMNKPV
Series [4] addresses T1, μOR. Type of series: cell-based. As to conditions: at 10 μM, DAMGO as control.
The test system of series [5] is C57BL/6 mice. The series can be described thus: Warm-water tail-flick assay. Type of series: in vivo.
Series [6] deals with C57BL/6 mice. The series can be described thus: Hot-plate assay. Type of series: in vivo. Background: Thermal pain tests record how soon the animal reacts.
Series [7] deals with C57BL/6 mice. The series can be described thus: Accelerating rotarod assay. Type of series: in vivo.
[8] abbreviates: naloxone 10 mg/kg i.p. 15 min before 33 100 mg/kg s.c.

Sequence of HA-mouse μOR (P42866 whole entry): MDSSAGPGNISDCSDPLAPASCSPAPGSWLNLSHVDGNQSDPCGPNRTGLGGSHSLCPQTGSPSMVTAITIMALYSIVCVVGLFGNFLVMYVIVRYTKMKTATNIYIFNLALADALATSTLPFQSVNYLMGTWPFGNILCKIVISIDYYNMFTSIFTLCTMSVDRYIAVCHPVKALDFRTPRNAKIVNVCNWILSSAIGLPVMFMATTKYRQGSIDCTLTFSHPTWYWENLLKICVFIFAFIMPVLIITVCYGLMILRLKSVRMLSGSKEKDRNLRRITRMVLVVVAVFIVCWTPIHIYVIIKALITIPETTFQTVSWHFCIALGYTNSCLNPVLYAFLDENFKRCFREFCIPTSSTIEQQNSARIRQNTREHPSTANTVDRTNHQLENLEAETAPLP
T1 sequence (P35372 whole entry): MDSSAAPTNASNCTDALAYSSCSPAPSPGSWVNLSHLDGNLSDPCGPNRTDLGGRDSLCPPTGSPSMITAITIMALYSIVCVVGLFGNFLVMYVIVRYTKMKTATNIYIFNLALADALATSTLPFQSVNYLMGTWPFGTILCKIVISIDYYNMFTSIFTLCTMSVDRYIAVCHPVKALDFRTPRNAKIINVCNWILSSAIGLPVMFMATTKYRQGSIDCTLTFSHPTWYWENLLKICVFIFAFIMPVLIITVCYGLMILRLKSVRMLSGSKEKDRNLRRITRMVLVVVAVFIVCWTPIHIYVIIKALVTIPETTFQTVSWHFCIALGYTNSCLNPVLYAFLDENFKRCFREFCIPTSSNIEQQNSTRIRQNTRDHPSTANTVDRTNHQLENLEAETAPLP

By Emax is commonly meant the size of the effect at its maximum, as opposed to the concentration needed. As to `C/C=C1/CN2CC[C@@]34c5cc(O)ccc5N(C)[C@]35OC[C@@]4(C(=O)OC)[C@H]1C[C@H]25` [Compound 1, Akuammine, reference compound], the Emax in series [1] is 62 ± 6%.
The same measure, in the same setting: the figure for `C/C=C1/CN2CC[C@@]34c5ccccc5N(C)[C@]35OC[C@@]4(C(=O)OC)[C@H]1C[C@H]25` [Compound 2, Pseudoakuammigine, reference compound] is 82 ± 7%.
For `C/C=C1/CN2CC[C@@]34c5cc(O)c(Br)cc5N(C)[C@]35OC[C@@]4(C(=O)OC)[C@H]1C[C@H]25` [Compound 19, 11-Bromoakuammine], the “radioligand displacement at μOR” value in series [2] was above 50%. In series [3], the “radioligand displacement at κOR” value is listed as above 50%. For the same molecule, the Emax in series [1] is 40 ± 5%.
Turning to `C/C=C1/CN2CC[C@@]34c5cc(O)c(I)cc5N(C)[C@]35OC[C@@]4(C(=O)OC)[C@H]1C[C@H]25` [Compound 20, 11-Iodoakuammine], the “radioligand displacement at μOR” value in series [2] was above 50%. The “radioligand displacement at κOR” value in series [3] is on record as above 50%. For the same molecule, the Emax in series [1] amounted to 32 ± 6%.
With `C/C=C1\CN2CC[C@@]34c5ccccc5N(CC)[C@]35OC[C@@]4(C(=O)OC)[C@H]1C[C@H]25` [Compound 31, N-1-Ethyl psuedoakuammigine], the Emax in series [1] amounted to 59 ± 4%.
Still for that read-out and setting: the figure for `C/C=C1\CN2CC[C@@]34c5ccccc5N(Cc5ccccc5)[C@]35OC[C@@]4(C(=O)OC)[C@H]1C[C@H]25` [Compound 32, N-1-Benzyl psuedoakuammigine] is 63 ± 4%.
One may read the ED50 as the dose at which the effect has come halfway, by size or by number of responders. As to `C/C=C1\CN2CC[C@@]34c5ccccc5N(CCc5ccccc5)[C@]35OC[C@@]4(C(=O)OC)[C@H]1C[C@H]25` [Compound 33, N-1-Phenethyl psuedoakuammigine], the Emax in series [1] is 76 ± 5%. The “recruitment of βArr2 to the μOR” value in series [4] is listed as below 10%. Moreover, the ED50 in series [5] (Mus musculus, sc, read-out: ED50 tail-flick assay) stood at 77.6 mg/kg. Further, in series [5] (mice, 100 mg/kg s.c., tail-flick), the “antinociception versus morphine (10 mg/kg), peak effect and duration” value is “comparable to that of the morphine”. In addition, the “antinociceptive effect in tail-flick assay” value in series [5] (mice, 80 and 100 mg/kg s.c.) was “exhibited antinociceptive effect”. For the same molecule, the “antinociceptive effect after naloxone pretreatment, tail-flick” value in series [5] (setting [8]) is on record as “completely blocked by naloxone”. Moreover, the “antinociceptive effect in hot-plate assay” value in series [6] (mice, 80 and 100 mg/kg s.c.) is given as “exhibited antinociceptive effect”. The “antinociceptive effect after naloxone pretreatment, hot-plate” value in series [6] (setting [8]) is reported as “completely blocked by naloxone”. For the same molecule, in series [7] (65 mg/kg and 80 mg/kg s.c., accelerating rotarod 4-40 rpm over 300 s), the “effect on locomotor activity, latency to fall” value is “significantly impaired motor activity”. In addition, the “effect on motor coordination” value in series [7] (high doses (80, 100 mg/kg, s.c.)) is “impair motor coordination”.
In the case of `C[C@@H](NC(=O)[C@@H](N)Cc1ccc(O)cc1)C(=O)NCC(=O)N(C)[C@@H](Cc1ccccc1)C(=O)NCCO` [DAMGO, (2S)-2-[[2-[[(2R)-2-[[(2S)-2-Amino-3-(4-hydroxyphenyl)propanoyl]amino]propanoyl]amino]acetyl]-methylamino]-N-(2hydroxyethyl)-3-phenylpropanamide, reference compound], the Emax in series [1] was determined as 96 ± 4%.
